Assay results taken from patent publication US20030180927A1, “Yeast protein methyltransferase hsl7p” (priority 2003, published 2003).
Values belong to the molecule of their own block, whether it stands above or below them.

Columns and labels:
[1] = molecular target: T1, Hs17p (Saccharomyces cerevisiae, UniProt P38274); assay: In vitro methylation of myelin basic protein by Hs17p, inhibition; type: biochemical; details: [3H]AdoMet methyl donor, 30° C., 30 minutes, FIG. 2C
T1 construct: made in house; host or cells: S. cerevisiae hsl7-delta strain SPY103 (pGALFLAGHSL7, GAL1 promoter); anti-Flag immunoprecipitate
T1 sequence (P38274 1-827): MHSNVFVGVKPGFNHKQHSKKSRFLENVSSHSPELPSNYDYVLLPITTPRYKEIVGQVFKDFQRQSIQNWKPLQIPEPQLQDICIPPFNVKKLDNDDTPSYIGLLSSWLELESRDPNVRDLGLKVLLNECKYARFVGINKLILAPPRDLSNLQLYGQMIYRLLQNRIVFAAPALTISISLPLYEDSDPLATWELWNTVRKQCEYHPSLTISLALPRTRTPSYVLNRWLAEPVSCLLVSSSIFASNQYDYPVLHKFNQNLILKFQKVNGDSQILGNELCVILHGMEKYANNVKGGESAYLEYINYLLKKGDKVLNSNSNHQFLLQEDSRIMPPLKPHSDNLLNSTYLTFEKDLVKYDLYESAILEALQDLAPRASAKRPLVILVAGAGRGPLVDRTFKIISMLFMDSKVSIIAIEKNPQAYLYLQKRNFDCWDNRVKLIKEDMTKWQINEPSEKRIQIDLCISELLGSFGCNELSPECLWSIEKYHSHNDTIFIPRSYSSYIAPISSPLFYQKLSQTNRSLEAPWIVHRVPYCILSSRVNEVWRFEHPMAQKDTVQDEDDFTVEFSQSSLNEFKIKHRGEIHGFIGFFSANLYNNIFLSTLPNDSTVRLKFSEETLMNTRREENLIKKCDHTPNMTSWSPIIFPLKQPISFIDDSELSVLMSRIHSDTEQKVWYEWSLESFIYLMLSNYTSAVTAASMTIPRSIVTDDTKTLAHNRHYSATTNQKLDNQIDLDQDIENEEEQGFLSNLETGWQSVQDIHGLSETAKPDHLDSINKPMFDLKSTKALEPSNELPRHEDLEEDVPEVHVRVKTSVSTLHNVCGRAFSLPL
Protocol: (§1) In Vitro Methylation. Immunoprecipitated Flag-Hs17p was used to methylate histones and myelin basic protein with minor modifications of the method previously described. Each reaction contained 10 ig of substrate proteins (histones, MBP and cytochrome c). [^3H]AdoMet was added to a final concentration of 55 iCi/ml. The reaction contained 150 mM NaCl, 50 mM Tris.HCl (pH 8.0), 1% NP-40, 0.8 mM PMSF, 3 μg/ml antipain, 10 ig/ml benzamidine (10^4 kallikrein-inactivating units/ml) plus 1 μg/ml each of leupeptin, chymostatin and pepstatin. The 50 μl reactions were incubated at 30° C. for 30 minutes.
(§2) FIG. 2 illustrates the UV crosslinking of [^3H]AdoMet to Hs17p. […] After UV crosslinking, the 7.5% gel was dried and exposed to Biomax MR film for 15 days at −70° C. FIG. 2B show the in vitro methylation of protein substrates by Hs17p. Methylation reactions were done as described in “Experimental Procedures.” Each lane contained 10 μg at substrate protein. The position of the labeled bands coincided exactly with the location of the substrate proteins or the Coomassie blue-stained gel (not shown). The dried 15% gel was exposed to Biomax MR film for 21 days at −70° C. […] Protein sizes were calculated by the migration of broad range protein standards (BioRad).

[2] = molecular target: JBP1 (Homo sapiens, UniProt O14744); assay: In vitro methylation of myelin basic protein by JBP1, inhibition; type: biochemical; details: [3H]AdoMet methyl donor, 30° C., 30 minutes, FIG. 2C
Protocol: as §1, §2

[3] = UV crosslinking of [3H]AdoMet; type: binding; details: immunoprecipitated protein, FIG. 2A
Protocol: UV Crosslinking. Crosslinking of [^3H]AdoMet to Hs17p and JBP1 was performed as described.
FIG. 2 illustrates the UV crosslinking of [^3H]AdoMet to Hs17p. […] After UV crosslinking, the 7.5% gel was dried and exposed to Biomax MR film for 15 days at −70° C. FIG. 2B show the in vitro methylation of protein substrates by Hs17p. Methylation reactions were done as described in “Experimental Procedures.” Each lane contained 10 μg at substrate protein. The position of the labeled bands coincided exactly with the location of the substrate proteins or the Coomassie blue-stained gel (not shown). The dried 15% gel was exposed to Biomax MR film for 21 days at −70° C. […] Protein methylation reactions were conducted as described in “Experimental Procedures,” except that homocysteine was added to the other reaction components on ice. The reactions were then incubated at 30° C. for 30 minutes. The 15% gel was exposed to Biomax MR film for 14 days at −70° C. Protein sizes were calculated by the migration of broad range protein standards (BioRad).

[4] = tested on: calf histones, bovine myelin basic protein and bovine cytochrome c; assay: In vitro methylation of protein substrates; type: biochemical; details: substrates H2A, H4 and myelin basic protein, 10 μg, FIG. 2B
Protocol: as §1, §2

JBP1, sequence (O14744 whole entry): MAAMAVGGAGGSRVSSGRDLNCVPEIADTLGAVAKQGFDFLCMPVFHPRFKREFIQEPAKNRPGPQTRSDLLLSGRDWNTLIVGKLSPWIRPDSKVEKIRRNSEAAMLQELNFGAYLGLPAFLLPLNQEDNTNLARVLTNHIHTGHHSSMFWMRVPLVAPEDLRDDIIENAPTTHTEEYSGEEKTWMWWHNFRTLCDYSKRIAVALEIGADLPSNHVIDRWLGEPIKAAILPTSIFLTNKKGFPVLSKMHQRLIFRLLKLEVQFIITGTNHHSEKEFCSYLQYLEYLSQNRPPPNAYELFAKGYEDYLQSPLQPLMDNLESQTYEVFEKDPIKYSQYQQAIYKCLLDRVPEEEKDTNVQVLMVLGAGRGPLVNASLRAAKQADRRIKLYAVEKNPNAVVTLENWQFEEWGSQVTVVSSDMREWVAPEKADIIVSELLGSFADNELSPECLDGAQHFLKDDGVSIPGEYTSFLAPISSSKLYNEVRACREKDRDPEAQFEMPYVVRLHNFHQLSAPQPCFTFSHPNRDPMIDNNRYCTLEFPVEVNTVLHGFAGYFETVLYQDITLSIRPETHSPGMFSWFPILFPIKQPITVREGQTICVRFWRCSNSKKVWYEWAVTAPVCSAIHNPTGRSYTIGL
JBP1, sequence (Q9BQA1 whole entry partner): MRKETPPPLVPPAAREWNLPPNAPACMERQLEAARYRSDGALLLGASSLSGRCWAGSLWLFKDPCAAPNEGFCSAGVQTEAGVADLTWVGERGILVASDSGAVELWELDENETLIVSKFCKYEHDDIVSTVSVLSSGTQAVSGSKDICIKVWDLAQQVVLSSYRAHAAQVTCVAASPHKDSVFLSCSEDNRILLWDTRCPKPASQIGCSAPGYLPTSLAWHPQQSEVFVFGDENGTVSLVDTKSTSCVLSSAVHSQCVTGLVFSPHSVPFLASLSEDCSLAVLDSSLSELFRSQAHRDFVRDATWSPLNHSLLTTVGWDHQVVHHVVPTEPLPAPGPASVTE

inhibition of myelin basic protein in vitro methylation by Hs17p [1]: blocks
inhibition of myelin basic protein in vitro methylation by JBP1 [2]: blocks
Molecule: N[C@@H](CCS)C(=O)O [homocysteine]

UV crosslinking / binding of [3H]AdoMet [3]: binds AdoMet
B1: Hs17p: yeast protein methyltransferase, homologue of Janus kinase binding protein 1, expressed by HSL7 (protein, UniProt P38274 1-827, looked up)
Protein arginine …: T1 sequence (P38274 1-827)
modifications: FLAG tag
in vitro methylation of substrate protein [4]: methylated
